Test results published in ChEMBL document CHEMBL1681705, “Optimisation of ITK inhibitors through successive iterative design cycles” (Bioorg Med Chem Lett, 2011).

Columns and labels:
[1] = molecular target: Mitogen-activated protein kinase 9 (Homo sapiens) (UniProt P45984); assay: Inhibition of JNK2a2 at 1 uM; settings: values are per cent of control
[2] = molecular target: T1, Ephrin type-B receptor 3 (Homo sapiens) (UniProt P54753); assay: Inhibition of EphB3 at 1 uM; values are per cent of control
T1 sequence (whole entry): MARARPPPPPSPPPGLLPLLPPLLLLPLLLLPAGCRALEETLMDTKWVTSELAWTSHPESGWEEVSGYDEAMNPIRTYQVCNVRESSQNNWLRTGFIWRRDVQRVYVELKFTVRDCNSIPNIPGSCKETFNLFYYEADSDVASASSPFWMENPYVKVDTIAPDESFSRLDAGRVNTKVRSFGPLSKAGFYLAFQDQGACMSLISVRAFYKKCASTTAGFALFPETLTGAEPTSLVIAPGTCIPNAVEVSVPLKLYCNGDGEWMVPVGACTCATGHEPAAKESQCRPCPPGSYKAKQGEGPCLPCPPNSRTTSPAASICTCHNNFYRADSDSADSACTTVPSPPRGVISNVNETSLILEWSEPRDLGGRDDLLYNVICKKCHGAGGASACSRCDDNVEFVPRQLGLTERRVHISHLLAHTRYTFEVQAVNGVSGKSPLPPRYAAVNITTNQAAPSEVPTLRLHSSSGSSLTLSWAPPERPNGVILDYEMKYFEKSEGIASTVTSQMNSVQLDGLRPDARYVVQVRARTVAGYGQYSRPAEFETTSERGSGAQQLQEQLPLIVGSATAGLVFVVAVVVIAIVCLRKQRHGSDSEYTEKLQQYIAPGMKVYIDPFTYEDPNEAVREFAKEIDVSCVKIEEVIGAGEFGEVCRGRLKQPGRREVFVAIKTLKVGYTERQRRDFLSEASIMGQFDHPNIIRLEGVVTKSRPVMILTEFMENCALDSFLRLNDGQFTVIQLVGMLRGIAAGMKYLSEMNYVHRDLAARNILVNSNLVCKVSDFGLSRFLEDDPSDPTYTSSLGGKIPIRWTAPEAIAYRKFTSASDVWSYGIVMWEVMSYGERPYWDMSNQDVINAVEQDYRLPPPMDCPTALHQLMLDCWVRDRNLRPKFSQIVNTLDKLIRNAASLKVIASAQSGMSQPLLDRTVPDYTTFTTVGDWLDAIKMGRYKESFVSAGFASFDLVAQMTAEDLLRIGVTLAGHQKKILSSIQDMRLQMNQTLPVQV

[3] = molecular target: Serine/threonine-protein kinase pim-2 (Homo sapiens) (UniProt Q9P1W9); assay: Inhibition of Pim-2 at 1 uM; values are per cent of control
[4] = molecular target: T2, Ephrin type-A receptor 3 (Homo sapiens) (UniProt P29320); assay: Inhibition of EphA3 at 0.1 uM; values are per cent of control
T2 sequence (whole entry): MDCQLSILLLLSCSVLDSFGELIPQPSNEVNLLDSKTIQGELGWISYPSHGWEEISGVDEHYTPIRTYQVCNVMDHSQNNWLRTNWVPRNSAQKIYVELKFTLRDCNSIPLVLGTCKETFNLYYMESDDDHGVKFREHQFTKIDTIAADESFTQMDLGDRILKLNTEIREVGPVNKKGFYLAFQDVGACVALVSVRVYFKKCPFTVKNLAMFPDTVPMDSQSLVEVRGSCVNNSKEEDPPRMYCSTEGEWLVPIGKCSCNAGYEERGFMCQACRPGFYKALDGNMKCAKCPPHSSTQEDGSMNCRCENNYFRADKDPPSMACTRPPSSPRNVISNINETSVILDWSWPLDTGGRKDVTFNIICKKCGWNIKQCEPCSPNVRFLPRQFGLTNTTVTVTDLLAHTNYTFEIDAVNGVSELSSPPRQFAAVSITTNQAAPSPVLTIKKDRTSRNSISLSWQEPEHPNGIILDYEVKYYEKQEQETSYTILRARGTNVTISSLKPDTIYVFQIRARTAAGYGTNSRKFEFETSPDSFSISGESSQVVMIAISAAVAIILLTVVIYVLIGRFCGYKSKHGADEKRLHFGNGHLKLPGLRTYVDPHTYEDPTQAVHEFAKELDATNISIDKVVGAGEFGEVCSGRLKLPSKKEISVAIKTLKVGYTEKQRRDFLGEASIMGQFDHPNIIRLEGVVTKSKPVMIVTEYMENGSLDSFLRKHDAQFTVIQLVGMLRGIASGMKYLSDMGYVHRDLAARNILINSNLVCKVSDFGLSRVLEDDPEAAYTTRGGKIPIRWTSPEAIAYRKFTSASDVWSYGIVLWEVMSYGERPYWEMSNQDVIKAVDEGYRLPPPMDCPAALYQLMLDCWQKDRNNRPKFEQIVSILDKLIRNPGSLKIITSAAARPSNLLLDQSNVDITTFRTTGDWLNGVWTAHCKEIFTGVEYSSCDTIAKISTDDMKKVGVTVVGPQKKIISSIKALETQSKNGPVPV

[5] = molecular target: T3, Protein kinase C iota type (Homo sapiens) (UniProt P41743); assay: Inhibition of PKCiota at 0.1 uM; values are per cent of control
T3 sequence (whole entry): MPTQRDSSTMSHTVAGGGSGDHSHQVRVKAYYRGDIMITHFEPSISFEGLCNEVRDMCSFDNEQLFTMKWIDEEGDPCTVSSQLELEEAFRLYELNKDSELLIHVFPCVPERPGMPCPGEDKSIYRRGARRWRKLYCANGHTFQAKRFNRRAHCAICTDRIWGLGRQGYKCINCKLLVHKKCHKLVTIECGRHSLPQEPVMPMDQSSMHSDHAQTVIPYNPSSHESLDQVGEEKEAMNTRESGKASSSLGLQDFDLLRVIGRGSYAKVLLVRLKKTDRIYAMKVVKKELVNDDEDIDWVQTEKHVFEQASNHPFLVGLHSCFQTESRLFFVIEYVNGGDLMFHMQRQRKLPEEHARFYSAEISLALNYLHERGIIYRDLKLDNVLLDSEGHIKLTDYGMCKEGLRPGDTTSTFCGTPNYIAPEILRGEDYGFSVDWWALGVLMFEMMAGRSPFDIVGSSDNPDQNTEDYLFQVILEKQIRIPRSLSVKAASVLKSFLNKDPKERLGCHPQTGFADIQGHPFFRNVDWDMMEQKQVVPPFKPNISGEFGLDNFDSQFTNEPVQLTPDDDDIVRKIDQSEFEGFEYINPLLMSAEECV

Sequence of Mitogen-activated protein kinase 9 (Homo sapiens) (P45984 whole entry, looked up): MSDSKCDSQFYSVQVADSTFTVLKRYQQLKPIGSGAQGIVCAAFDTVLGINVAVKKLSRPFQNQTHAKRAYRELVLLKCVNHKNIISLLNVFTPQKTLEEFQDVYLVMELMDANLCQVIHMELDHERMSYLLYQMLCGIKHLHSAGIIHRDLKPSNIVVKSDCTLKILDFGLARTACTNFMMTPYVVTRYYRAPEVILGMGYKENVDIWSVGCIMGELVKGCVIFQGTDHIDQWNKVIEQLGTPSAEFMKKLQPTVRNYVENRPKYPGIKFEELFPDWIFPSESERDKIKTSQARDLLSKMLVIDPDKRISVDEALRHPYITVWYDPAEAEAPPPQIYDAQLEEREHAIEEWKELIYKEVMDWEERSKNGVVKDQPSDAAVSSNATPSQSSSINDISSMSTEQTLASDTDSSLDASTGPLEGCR
Sequence of Serine/threonine-protein kinase pim-2 (Homo sapiens) (Q9P1W9 whole entry, looked up): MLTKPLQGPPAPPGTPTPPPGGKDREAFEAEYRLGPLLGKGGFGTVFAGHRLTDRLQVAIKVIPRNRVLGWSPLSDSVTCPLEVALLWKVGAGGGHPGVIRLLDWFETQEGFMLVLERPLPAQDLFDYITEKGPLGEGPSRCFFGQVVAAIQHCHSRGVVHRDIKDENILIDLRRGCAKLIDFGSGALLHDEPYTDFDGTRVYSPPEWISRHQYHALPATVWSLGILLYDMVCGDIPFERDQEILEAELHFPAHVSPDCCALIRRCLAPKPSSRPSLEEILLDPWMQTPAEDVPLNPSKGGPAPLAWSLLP

## Cc1ccc2cc(-c3n[nH]c4ccc(NC5CCNC5)cc34)[nH]c2c1 (stereo not given)
[1]
  residual activity: 87%
[2]
  residual activity: 105%
[3]
  residual activity: 105%
[4]
  residual activity: 89%
[5]
  residual activity: 89%

## Cc1ccc2cc(-c3n[nH]c4ccc(NC5CCN(Cc6ccccc6)CC5)cc34)[nH]c2c1
[1]
  residual activity: 88%
[2]
  residual activity: 119%
[3]
  residual activity: 101%
[4]
  residual activity: 81%
[5]
  residual activity: 109%
